From patent US20220281931A1, “CHEMICALLY INDUCIBLE POLYPEPTIDE POLYMERIZATION” (Dana-Farber Cancer Institute, Inc., priority 2019, published 2022)

Legend:
SuDHL4Cas9 cells = experiment: Whole proteome quantification using tandem mass tag mass spectrometry; type: cell-based, human; settings: SuDHL4 cells, 1 μM compound, 4 hours
Procedure: 10×10^6 SuDHL4Cas9 cells were treated with DMSO, 1 μM BI-3802 or 1 μM BI-3812 for 1 h or 4 h in triplicates and cells were harvested by centrifugation. Samples were processed, measured and analyzed as previously described (Donovan, K. A. et al. Thalidomide promotes degradation of SALL4, a transcription factor implicated in Duane Radial Ray syndrome. Ehfe 7, doi:10.7554/eLife.38430 (2018)). Data are available in the PRIDE repository (PXD016185).

BCL6 = target: T1, BCL6 (Homo sapiens, UniProt P41182); experiment: Cellular fractionation and immunoblot of BCL6; type: cell-based; settings: SuDHL4 cells, 1 μM, 24 hours
T1 construct: endogenous in cells; host or cells: SuDHL4 / SuDHL4Cas9 cells
Procedure: 1×10^6 SuDHL4Cas9 cells were treated with DMSO or 1 μM BI-3802 for 24 h and fractionated using the CelLytic™NuCLEAR™Extraction Kit (Sigma-Aldrich) according to the manufacturer's protocol, resolved on a polyacrylamide gel, and immunoblotted for the indicated targets.

[1] = target: T2, eGFPBCL6 stability reporter (Homo sapiens, UniProt P41182); experiment: Degradation of BCL6 reporter constructs in HEK293T cells (flow cytometry); type: cell-based; settings: HEK293T cells, 1 μM, 1 hour
T2 construct: the full length BCL6 (BCL6^FL) was fused in-frame with eGFP; expressed in transfected cells; host or cells: HEK293TCas9 cells, lentiviral transduction (Artichoke vector)
Procedure: Lentivirus was packaged in HEK293T cells using TransIT (Mirus) and subsequently used for spin infection.
HEK293TCas9 cells expressing indicated constructs in “Artichoke” or “Cilantro2” stability reporter vectors (PGK or SFFV Target-eGFP-IRES-mCherry, puromycin resistance) were plated in 96 well plates and treated for indicated times. BCL6-eGFP and mCherry expression were quantified by flow cytometry (CytoFLEX, Beckman or LSR Fortessa flow cytometer BD Biosciences). All degradation assays were done in at least triplicates. Geometric means of eGFP and mCherry fluorescent signals for live and mCherry positive cells were exported using flow cytometry analysis software (FlowJo, BD). Ratios of eGFP to mCherry were normalized to the average of DMSO-treated controls.

[2] = target: T3, BCL6-eGFP fusion construct (Homo sapiens, UniProt P41182); experiment: Live cell imaging of BCL6-eGFP foci in HEK293T cells; type: cell-based; settings: HEK293T cells, full length BCL6 and eGFPBCL6^1-275, 1 μM
T3 construct: expressed in transfected cells; host or cells: HEK293TCas9 cells, lentiviral transduction (Cilantro2 vector)
Procedure: 1×10^3 HEK293T cells per cm^2 were seeded in a μ-Slide 8 Well chamber (ibidi) and cultured for 18-24 h under standard growth conditions. Cell culture medium was exchanged to CO2 independent media (Gibco) and imaged with the DeltaVision Ultra High-Resolution Microscope (GE Healthcare, 100×lens, oil refraction index=1.520). The following acquisition parameters were used: Image size […], binning 1×1, GFP exposure time 0.08 sec. and the Neutral Density (% T) filter 32%. To capture foci within all cell volume, around 26μm per cell was imaged every 0.4-0.5 μm. Images were deconvolved (10 cycles, conservative conditions) and projected using maximal intensity by softWoRx® 7.0.0. Images for movies were taken every 10 minutes and combined to a movie by QuickTime.

endogenous BCL6 = target: T4, endogenous BCL6 (Homo sapiens, UniProt P41182); experiment: Immunofluorescence of endogenous BCL6 in SuDHL4 cells; type: cell-based; settings: 1 μM BI-3802, 1 hour
T4 construct: endogenous in cells; host or cells: SuDHL4 / SuDHL4Cas9 cells
Procedure: (§1) In vitro ubiquitination for identification of compatible E2 conjugating enzymes was performed by following the manufacturer's instructions (K-982, Boston Biochem), using Strep II-Avi-BCL6^5-360 and Flag-SIAH1^FL. Time-course in vitro ubiquitination was performed by mixing the substrate (BCL6, 2 μM), E3 (SIAH, 0.5 μM), E1 (UBA1, Boston Biochem, 0.2 μM, E2 (UBE2D1, Boston Biochem, 0.5 μM), and ubiquitin (Boston Biochem, 50 μM), with a reaction buffer (B-71, Boston Biochem) containing BI-3802 or DMSO (normalized to 1% DMSO) in 15 μL volume each. Reactions were initiated by adding 5 μL of Mg-ATP solution (B-20, Boston Biochem), incubated for up to 60 min at 37° C., and analyzed by western blot using Strep tag II Antibody HRP conjugate (71591-3, Sigma) at 1:4,000. 0.8×10^6 cells/mL SuDHL4 cells were treated with DMSO or 0.5 μM E1 Inhibitor (3 h)+1 μM BI-3802 (I h) and 200 μL of the cell suspension was immobilized on a slide using the Cytospin™ 4 Cytocentrifuge (CytoSpin 4, A78300003; 6000 rpm, 6 min). Medium was aspirated and cells were fixed with 4% formaldehyde diluted in warm PBS for 15 min at room temperature. Slides were washed three times for 5 min with PBS, blocked and permeabilized with blocking solution (5% Normal Goat Serum (Cell Signaling), 0.3% Triton X-100 in PBS) for 60 min and stained with anti-BCL6 antibody in blocking solution overnight at 4° C. […]

[3] = target: T5, StrepBCL6^5-360 / full length SIAH1 (Homo sapiens, UniProt P41182); experiment: In vitro ubiquitination of BCL6 by SIAH1; type: biochemical; settings: recombinant polypeptides, 1 μM BI-3802 vs DMSO
T5 construct: using Strep II-Avi-BCL6^5-360 and Flag-SIAH1^FL; made in house; host or cells: Trichoplusia ni High Five insect cells, baculovirus
Procedure: as §1

[4] = target: T6, Nano-LuciferaseSIAH1^C44S and HaloTagBCL6 (Homo sapiens, UniProt P41182); experiment: NanoBRET BCL6-SIAH1 interaction in HEK293T cells; type: cell-based; settings: 1 μM, 2 hours
T6 construct: expressed in transfected cells; host or cells: HEK293T cells, transient transfection
Procedure: Bioluminescence resonance energy transfer (BRET) experiments were performed using a NanoBRET PPI starter kit (Promega N1821) according to the manufacturer's instructions and as previously described (Sperling, A. S. et al. Patterns of substrate affinity, competition, and degradation kinetics underlie biological activity of thalidomide analogs. Blood 134, 160-170, doi:10.1182/blood.2019000789 (2019)).

How did the “change in polypeptide abundance (whole proteome)” value (SuDHL4Cas9 cells) turn out when `CNC(=O)COc1cc2cc(Nc3nc(N4C[C@H](C)C[C@H](C)C4)ncc3Cl)ccc2n(C)c1=O` [BI-3802, 2-((6-((5-chloro-2-((3S,5R)-3,5-dimethylpiperidin-1-yl)pyrimidin-4-yl)amino)-1-methyl-2-oxo-1,2-dihydroquinolin-3-yl)oxy)-N-methylacetamide] was run?
Its value is “BCL6 was the only polypeptide with significantly decreased abundance”.

What about the “chromatin-bound BCL6 level” value (BCL6) of the same compound?
Its value is “efficiently depleted chromatin-bound BCL6”.

And the “degradation of full-length BCL6 reporter (eGFPBCL6^FL)” value [1]?
Its value is “induced degradation of the full-length BCL6 reporter”.

What about the “eGFP-containing BCL6 foci formation” value [2] of the same compound?
The value was “appearance of distinct eGFP-containing foci was observed within minutes”.

What about the “endogenous BCL6 foci formation” value (endogenous BCL6) of the same compound?
The value was “endogenous BCL6 also formed foci”.

What about the “rate and magnitude of BCL6 ubiquitination by SIAH1” value [3] of the same compound?
The value was “accelerated”.

And the “effect on the BCL6-SIAH1 interaction in cells (mBRET signal)” value [4]?
Its value is “increased the interaction between BCL6 and SIAH1”.
